One test concerns the target T1, DYRK1A (Homo sapiens, UniProt Q13627).
T1 construct: full-length human kinases from Carna Biosciences; purchased Carna Biosciences 04-130
The test is described as follows: Kinase TR-FRET assay, DYRK1A. It counts as biochemical. Background: In TR-FRET formats the signal depends on donor and acceptor labels being close together.

For the next test, the target named is T2, DYRK1B (Homo sapiens, UniProt Q9Y463).
T2 construct: full-length human kinases from Carna Biosciences; purchased Carna Biosciences 04-131
Briefly: Kinase TR-FRET assay, DYRK1B. The format is biochemical.

For a further test, the target named is T3, CLK1 (Homo sapiens, UniProt P49759).
T3 construct: full-length human kinases from Carna Biosciences; purchased Carna Biosciences 04-126
The test is described as follows: Kinase TR-FRET assay, CLK1. The format is biochemical.

For the next test, the target named is T4, phospho-Ser520-DYRK1A (Homo sapiens, UniProt Q13627).
T4 construct: full-length, wild-type human DYRK1A (NM_001396) with an HA tag; expressed in transfected cells; host or cells: human U2-OS osteosarcoma cells, pcDNA3.1 plasmid
Briefly: Cellular DYRK1A autophosphorylation assay in U2-OS cells. The following applies: 5 hours exposure, read-out: IC50 (μM) P-Ser520-Dyrk1A-Cell assay. It counts as cell-based.

Test [1] concerns the target T5, His-TEV-DYRK1A Kinase domain (aa127-485) (Homo sapiens, UniProt Q13627).
T5 construct: His-TEV-DYRK1A Kinase domain (aa127-485); His (N); TEV cleavage site (N)
Briefly: Kinase ADP assay (ADP Hunter Plus). The format is biochemical.

Molecules are shown by their SMILES.

T3 sequence (P49759 1-526 isoform P49759-3): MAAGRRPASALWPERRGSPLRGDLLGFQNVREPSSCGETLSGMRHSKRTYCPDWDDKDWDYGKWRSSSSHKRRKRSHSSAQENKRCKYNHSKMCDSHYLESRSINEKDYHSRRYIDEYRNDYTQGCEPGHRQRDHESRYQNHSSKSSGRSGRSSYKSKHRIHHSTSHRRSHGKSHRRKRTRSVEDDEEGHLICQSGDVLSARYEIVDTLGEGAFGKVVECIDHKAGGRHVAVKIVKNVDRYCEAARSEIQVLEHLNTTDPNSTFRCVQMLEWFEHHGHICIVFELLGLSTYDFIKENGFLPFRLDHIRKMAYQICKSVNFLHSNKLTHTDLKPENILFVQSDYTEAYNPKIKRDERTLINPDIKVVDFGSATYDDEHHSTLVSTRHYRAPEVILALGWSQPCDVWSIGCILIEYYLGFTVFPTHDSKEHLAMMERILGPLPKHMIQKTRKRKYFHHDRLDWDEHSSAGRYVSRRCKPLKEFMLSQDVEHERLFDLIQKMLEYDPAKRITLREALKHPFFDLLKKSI
T2 sequence (Q9Y463 whole entry): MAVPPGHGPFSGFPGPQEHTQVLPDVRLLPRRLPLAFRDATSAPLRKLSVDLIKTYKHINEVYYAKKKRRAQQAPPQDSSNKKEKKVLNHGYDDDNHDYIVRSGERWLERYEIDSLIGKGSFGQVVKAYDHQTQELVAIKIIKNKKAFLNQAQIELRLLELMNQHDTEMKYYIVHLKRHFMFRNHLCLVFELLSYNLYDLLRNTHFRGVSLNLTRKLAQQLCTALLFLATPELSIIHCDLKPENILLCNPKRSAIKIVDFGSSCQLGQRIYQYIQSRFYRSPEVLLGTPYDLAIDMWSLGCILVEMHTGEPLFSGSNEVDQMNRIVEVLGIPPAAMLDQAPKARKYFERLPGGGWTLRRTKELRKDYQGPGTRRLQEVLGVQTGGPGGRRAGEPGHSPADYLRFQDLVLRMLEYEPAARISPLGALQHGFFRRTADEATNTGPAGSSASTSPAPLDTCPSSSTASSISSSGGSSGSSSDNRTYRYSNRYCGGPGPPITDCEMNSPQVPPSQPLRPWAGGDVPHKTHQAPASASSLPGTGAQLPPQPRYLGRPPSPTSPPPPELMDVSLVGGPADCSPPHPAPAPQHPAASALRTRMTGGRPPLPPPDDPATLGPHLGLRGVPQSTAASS

Broadly, the IC50 is the point on the concentration scale where inhibition reaches its midpoint. Consider `Cc1nc(OCc2cc(C)on2)c2c(-c3ccncc3)c[nH]c2n1` [Example 16, 2-methyl-4-[(5-methyl-1,2-oxazol-3-yl)methoxy]-5-(pyridin-4-yl)-7H-pyrrolo[2,3-d]pyrimidine], for which the IC50 stood at 0.0149 µM against DYRK1A; 0.0178 µM on DYRK1B; 0.0328 µM against CLK1; 0.14 µM on phospho-Ser520-DYRK1A; 0.011 µM in test [1].

Regarding `Cc1nc(OCc2ccc(C#N)cc2)c2c(-c3ccnc(N)c3)c[nH]c2n1` [Example 25, 4-({[5-(2-aminopyridin-4-yl)-2-methyl-7H-pyrrolo[2,3-d]pyrimidin-4-yl]oxy}methyl)benzonitrile], the IC50 against DYRK1A was determined as 0.0031 µM; against DYRK1B, 0.0079 µM; at CLK1, 0.0177 µM; on phospho-Ser520-DYRK1A, 0.036 µM; in test [1], 0.012 µM.

For the compound `Cc1nc(NCc2c(C)cccc2Cl)c2c(-c3ccnc(N)c3)c[nH]c2n1` [Example 58, 5-(2-aminopyridin-4-yl)-N-(2-chloro-6-methylbenzyl)-2-methyl-7H-pyrrolo[2,3-d]pyrimidin-4-amine], the IC50 against DYRK1A worked out at 0.0215 µM; at DYRK1B, 0.0175 µM; against CLK1 it was 0.0245 µM; on phospho-Ser520-DYRK1A, 0.0337 µM; in test [1], 0.01 µM.

In the case of `Cc1nc(NCc2c(Cl)cccc2Cl)c2c(-c3ccnc(N)c3)c[nH]c2n1` [Example 61, 5-(2-aminopyridin-4-yl)-N-(2,6-dichlolorobenzyl)-2-methyl-7H-pyrrolo[2,3-d]pyrimidin-4-amine], the IC50 against DYRK1A amounted to 0.0062 µM; against DYRK1B it was 0.0029 µM; against CLK1, 0.0129 µM; at phospho-Ser520-DYRK1A it was 0.0115 µM; in test [1] it was 0.01 µM.

Turning to `Cc1nc(NCc2c(F)cccc2Cl)c2c(-c3ccnc(N)c3)c[nH]c2n1` [Example 62, 5-(2-aminopyridin-4-yl)-N-(2-chloro-6-fluorobenzyl)-2-methyl-7H-pyrrolo[2,3-d]pyrimidin-4-amine], the IC50 at DYRK1A turned out to be 0.0186 µM; on DYRK1B, 0.0002 µM; against CLK1 it was 0.0162 µM; at phospho-Ser520-DYRK1A, 0.021 µM; in test [1] it was 0.008 µM.

Regarding `Cc1nc(NCc2ncccc2F)c2c(-c3ccnc(N)c3)c[nH]c2n1` [Example 71, 5-(2-aminopyridin-4-yl)-N-[(3-fluoropyridin-2-yl)methyl]-2-methyl-7H-pyrrolo[2,3-d]pyrimidin-4-amine], the IC50 at DYRK1B stood at 0.0074 µM; against CLK1, 0.0237 µM.

As to `Cc1nc(NCc2cccc(F)c2F)c2c(-c3ccnc(N)c3)c[nH]c2n1` [Example 74, 5-(2-aminopyridin-4-yl)-N-(2,3-difluorobenzyl)-2-methyl-7H-pyrrolo[2,3-d]pyrimidin-4-amine], the IC50 is 0.0012 µM against DYRK1A, 0.0184 µM at CLK1, 0.111 µM on phospho-Ser520-DYRK1A and 0.014 µM in test [1].

For the compound `Cc1nc(NCc2ncccc2C(F)(F)F)c2c(-c3ccnc(N)c3)c[nH]c2n1` [Example 78, 5-(2-aminopyridin-4-yl)-2-methyl-N-{[3-(trifluoromethyl)pyridin-2-yl]methyl}-7H-pyrrolo[2,3-d]pyrimidin-4-amine], the IC50 stood at 0.0013 µM against DYRK1A; 0.0145 µM against DYRK1B; 0.0293 µM on CLK1; 0.0721 µM at phospho-Ser520-DYRK1A; 0.01 µM in test [1].

In the case of `Cc1nc(NCc2cccc(Cl)c2C)c2c(-c3ccnc(N)c3)c[nH]c2n1` [Example 94, 5-(2-aminopyridin-4-yl)-N-(3-chloro-2-methylbenzyl)-2-methyl-7H-pyrrolo[2,3-d]pyrimidin-4-amine], the IC50 was determined as 0.0077 µM at DYRK1A; 0.0112 µM at DYRK1B; 0.0378 µM at CLK1; 0.155 µM at phospho-Ser520-DYRK1A; 0.019 µM in test [1].

On to `Cc1nc(N2CCc3ccccc3C2)c2c(-c3ccnc(N)c3)c[nH]c2n1` [Example 96, 4-[4-(3,4-dihydroisoquinolin-2(1H)-yl)-2-methyl-7H-pyrrolo[2,3-d]pyrimidin-5-yl]pyridin-2-amine], for which the IC50 on DYRK1A amounted to 0.0023 µM; against DYRK1B, 0.0315 µM; against CLK1, 0.0151 µM; at phospho-Ser520-DYRK1A, 0.0119 µM; in test [1], 0.009 µM.

For `Cc1nc(NC2Cc3ccccc3C2)c2c(-c3ccnc(N)c3)c[nH]c2n1` [Example 99, 5-(2-aminopyridin-4-yl)-N-(2,3-dihydro-1H-inden-2-yl)-2-methyl-7H-pyrrolo[2,3-d]pyrimidin-4-amine], the 50% inhibitory concentration (IC50) against DYRK1A was found to be 0.0086 µM; against DYRK1B, 0.0293 µM; on CLK1, 0.0549 µM; at phospho-Ser520-DYRK1A it was 0.192 µM; in test [1] it was 0.029 µM.

For `Cc1nc(N2CCC3CCCCC3C2)c2c(-c3ccnc(N)c3)c[nH]c2n1` (stereo not drawn) [Example 104, 4-[2-methyl-4-(octahydroisoquinolin-2(1H)-yl)-7H-pyrrolo[2,3-d]pyrimidin-5-yl]pyridin-2-amine], the IC50 came out at 0.0081 µM against DYRK1A; 0.0167 µM at DYRK1B; 0.0225 µM against CLK1; 0.105 µM on phospho-Ser520-DYRK1A; 0.015 µM in test [1].

For `Cc1nc(N2CCc3sccc3C2)c2c(-c3ccnc(N)c3)c[nH]c2n1` [Example 108, 4-[4-(6,7-dihydrothieno[3,2-c]pyridin-5(4H)-yl)-2-methyl-7H-pyrrolo[2,3-d]pyrimidin-5-yl]pyridin-2-amine], the IC50 against DYRK1A turned out to be 0.0027 µM; against DYRK1B it was 0.0092 µM; on CLK1 it was 0.0283 µM; on phospho-Ser520-DYRK1A it was 0.0491 µM; in test [1], 0.009 µM.

As to `Cc1nc(NCc2c(F)cccc2F)c2c(-c3cc(N)nc(N)c3)c[nH]c2n1` [Example 115, 4-{4-[(2,6-difluorobenzyl)amino]-2-methyl-7H-pyrrolo[2,3-d]pyrimidin-5-yl}pyridine-2,6-diamine], the IC50 against DYRK1A was found to be 0.0031 µM; at DYRK1B, 0.0094 µM; on CLK1, 0.0172 µM; on phospho-Ser520-DYRK1A, 0.0185 µM; in test [1], 0.005 µM.

As for `COc1ccccc1[C@H](C)Nc1nc(C)nc2[nH]cc(-c3cc(N)nc(N)c3)c12` [Example 117, 4-(4-{[(1S}-1-(2-methoxyphenyl)ethyl]amino}-2-methyl-7H-pyrrolo[2,3-d]pyrimidin-5-yl)pyridine-2,6-diamine], the IC50 at DYRK1A stood at 0.0059 µM; against DYRK1B, 0.0093 µM; on CLK1 it was 0.0195 µM; on phospho-Ser520-DYRK1A, 0.0377 µM; in test [1], 0.01 µM.

On to `Cc1nc(NCc2c(F)cncc2F)c2c(-c3ccnc(N)c3)c[nH]c2n1` [Example 119, 5-(2-aminopyridin-4-yl)-N-[(3,5-difluoropyridin-4-yl)methyl]-2-methyl-7H-pyrrolo[2,3-d]pyrimidin-4-amine], for which the concentration for half-maximal inhibition (IC50) against DYRK1A stood at 0.0066 µM; on DYRK1B, 0.0192 µM; on CLK1, 0.0828 µM; at phospho-Ser520-DYRK1A, 0.232 µM; in test [1], 0.02 µM.

In the case of `C#Cc1nc(NCc2c(F)cccc2F)c2c(-c3ccnc(N)c3)c[nH]c2n1` [Example 148, 5-(2-aminopyridin-4-yl)-N-(2,6-difluorobenzyl)-2-ethynyl-7H-pyrrolo[2,3-d]pyrimidin-4-amine], the IC50 on DYRK1A worked out at 0.0042 µM; on DYRK1B it was 0.0144 µM; on CLK1 it was 0.0303 µM; on phospho-Ser520-DYRK1A, 0.0335 µM; in test [1], 0.007 µM.

For `Cc1nc(-c2cc3ccccc3[nH]2)c2c(-c3ccnc(N)c3)c[nH]c2n1` [Example 161], the half-inhibitory concentration (IC50) against DYRK1A came out at 0.0091 µM; on DYRK1B, 0.0252 µM; against CLK1 it was 0.122 µM; on phospho-Ser520-DYRK1A, 0.15 µM; in test [1] it was 0.028 µM.

For the compound `Cc1nc(COc2c(F)cccc2F)c2c(-c3ccnc(N)c3)c[nH]c2n1` [Example 166], the IC50 at CLK1 amounted to 0.248 µM; at phospho-Ser520-DYRK1A, 0.118 µM; in test [1] it was 0.025 µM.

In the case of `COc1cccc(-c2nc(C)nc3[nH]cc(-c4ccnc(N)c4)c23)c1` [Example 167], the IC50 was determined as 0.042 µM against CLK1, 0.0444 µM on phospho-Ser520-DYRK1A and 0.015 µM in test [1].

Consider `Cc1nc(-c2ccc3c(c2)OCCO3)c2c(-c3ccnc(N)c3)c[nH]c2n1` [Example 173], for which the IC50 came out at 0.0045 µM against DYRK1A; 0.0051 µM on DYRK1B; 0.0334 µM on CLK1; 0.0497 µM on phospho-Ser520-DYRK1A; 0.013 µM in test [1].

As for `Cc1nc(CN2CCc3ccccc32)c2c(-c3ccnc(N)c3)c[nH]c2n1` [Example 178, 4-[4-(2,3-dihydro-1H-indol-1-ylmethyl)-2-methyl-7H-pyrrolo[2,3-d]pyrimidin-5-yl]pyridin-2-amine], the IC50 against DYRK1A worked out at 0.0052 µM; on DYRK1B, 0.0141 µM; against CLK1, 0.18 µM; on phospho-Ser520-DYRK1A it was 0.0782 µM; in test [1] it was 0.013 µM.

For `Cc1nc(-c2ccc3c(c2)OCO3)c2c(-c3ccnc(N)c3)c[nH]c2n1` [Example 179], the IC50 on DYRK1B was determined as 0.0115 µM; against CLK1 it was 0.0425 µM.

On to `Cc1nc(-c2cc3cccc(Cl)c3s2)c2c(-c3ccnc(N)c3)c[nH]c2n1` [Example 185], for which the IC50 was determined as 0.0048 µM against DYRK1A; 0.0158 µM against DYRK1B; 0.0631 µM at CLK1; 0.012 µM on phospho-Ser520-DYRK1A; 0.011 µM in test [1].

`Cc1nc(NCc2c(F)cccc2F)c2c(-c3ccnc(N)n3)c[nH]c2n1` [Example 206, 5-(2-aminopyrimidin-4-yl)-N-(2,6-difluorobenzyl)-2-methyl-7H-pyrrolo[2,3-d]pyrimidin-4-amine]: the IC50 on DYRK1B worked out at 0.0133 µM; against CLK1 it was 0.0238 µM.

The values are drawn from patent US20180273538A1, “PYRROLO[2,3-d]PYRIMIDINE DERIVATIVES, A PROCESS FOR THEIR PREPARATION AND PHARMACEUTICAL COMPOSITIONS CONTAINING THEM” (LES LABORATOIRES SERVIER, priority 2015, published 2018).
